Measurements reported in US11691986B2, “PTEFB inhibiting macrocyclic compounds” (Bayer Aktiengesellschaft, priority 2017, dated 2023).

How the values were obtained:
[1] = system: B16F10 cells; test: Proliferation assay, B16F10 (crystal violet); format: cell-based; conditions: Mus musculus, B16-F10, 96 h; B16F10, 4 days; read-out: Inhibition of B16F10 cell proliferation IC50
Method: Cultivated tumour cells (HeLa, human cervical tumour cells, ATCC CCL-2; NCI-H460, human non-small cell lung carcinoma cells, ATCC HTB-177; DU 145, hormone-independent human prostate carcinoma cells, ATCC HTB-81; HeLa-MaTu-ADR, multidrug-resistant human cervical carcinoma cells, EPO-GmbH Berlin; Caco-2, human colorectal carcinoma cells, ATCC HTB-37; B16F10, mouse melanoma cells, ATCC CRL-6475) were plated at a density of 5,000 cells/well (DU145, HeLa-MaTu-ADR), 3,000 cells/well (NCI-H460, HeLa), 1,500 cells/well (Caco-2), or 1,000 cells/well (B16F10) in a 96-well multititer plate in 200 μL of their respective growth medium supplemented 10% fetal calf serum. After 24 hours, the cells of one plate (zero-point plate) were stained with crystal violet (see below), while the medium of the other plates was supplemented with the test substances in various concentrations (0 μM, as well as in the range of 0.0001-10 μM; the final concentration of the solvent dimethyl sulfoxide was adjusted to 0.1%) using a Hewlett-Packard HP D300 Digital Dispenser. The cells were incubated for 4 days in the presence of test substances. Cell proliferation was determined by staining the cells with crystal violet: the cells were fixed by adding 20 μl/measuring point of an 11% glutaric aldehyde solution for 15 minutes at room temperature. After three washing cycles of the fixed cells with water, the plates were dried at room temperature. The cells were stained by adding 100 μl/measuring point of a 0.1% crystal violet solution (pH 3.0). After three washing cycles of the stained cells with water, the plates were dried at room temperature. The dye was dissolved by adding 100 μl/measuring point of a 10% acetic acid solution. The extinction was determined by photometry at a wavelength of 595 nm. The change of cell number, in percent, was calculated by normalization of the measured values to the extinction values of the zero-point plate (=0%) and the extinction of the untreated (0 Wm) cells (=100%). The IC50 values (inhibitory concentration at 50% of maximal effect) were determined by means of a 4 parameter fit.

[2] = system: A2780 cells; test: Proliferation assay, A2780 (Cell Titre-Glo); format: cell-based; conditions: Homo sapiens; A2780, 72-hour exposure; read-out: Inhibition of A2780 cell proliferation IC50
Method: A2780 human ovarian carcinoma cells (ECACC #93112519) and non-adherent MOLM-13 human acute myeloid leukemia cells (DSMZ ACC 554) were seeded at a density of 3,000 cell/well (A2780) or 5,000 cells/well (MOLM-13) in a 96-well multititer plate in 150 μL of growth medium supplemented 10% fetal calf serum. After 24 hours, cell viability of one plate (zero-point plate) was determined with the Cell Titre-Glo Luminescent Cell Viability Assay (Promega), while the medium of the other plates was supplemented with the test substances in various concentrations (0 μM, as well as in the range of 0.0001-10 μM; the final concentration of the solvent dimethyl sulfoxide was adjusted to 0.1%) using a Hewlett-Packard HP D300 Digital Dispenser. Cell viability was assessed after 72-hour exposure with the Cell Titre-Glo Luminescent Cell Viability Assay (Promega). IC50 values (inhibitory concentration at 50% of maximal effect) were determined by means of a 4 parameter fit on measurement data which were normalized to vehicle (DMSO) treated cells (=100%) and measurement readings taken immediately before compound exposure (=0%).

[3] = target: T1, human PTEFb (CDK9/Cyclin T1) (Homo sapiens, UniProt P50750); test: Surface Plasmon Resonance PTEFb; format: binding; conditions: SPR, 37° C.; for residence time: 1/koff, read-out: Target residence time; for residence time / koff: * = arithmetic mean; for Kd: * = arithmetic mean of more than one value, read-out: Equilibrium dissociation constant KD; for koff: < = below what is resolvable, read-out: Dissociation rate constant koff
T1 construct: purchased ProQinase, Freiburg, Germany
Source text: 8. Surface Plasmon Resonance PTEFb
The ability of the compounds according to the invention to bind human PTEFb may be determined using surface plasmon resonance (SPR). KD values and koff values may be measured using a Biacore® T200 instrument (GE Healthcare, Uppsala, Sweden).
For SPR measurements, recombinant human PTEFb (CDK9/Cyclin T1 recombinant human active protein kinase purchased from ProQinase, Freiburg, Germany) is immobilized using standard amine coupling (Johnsson B et al, Anal Biochem. 1991 Nov. 1; 198(2):268-77). Briefly, carboxymethylated dextran biosensor chips (CM7, GE Healthcare) are activated with N-ethyl-N′-(3-dimethylaminopropyl)-carbodiimide hydrochloride (EDC) and N-hydroxysuccinimide (NHS) according to the supplier's instructions. Human PTEFb is diluted in 1×HBS-EP+(GE Healthcare) and injected on the activated chip surface. Subsequently, a 1:1 solution of 1 M ethanolamine-HCl (GE Healthcare) and 1×HBS-EP is injected to block unreacted groups, resulting in approximately 4000 response units (RU) of immobilized protein. A reference surface is generated by treatment with NHS-EDC and ethanolamine-HCl. Compounds are dissolved in 100% dimethylsulfoxide (DMSO, Sigma-Aldrich, Germany) to a concentration of 10 mM and subsequently diluted in running buffer (1×HBS-EP+pH 7.4 [generated from HBS-EP+Buffer 10×(GE Healthcare): 0.1 M HEPES, 1.5 M NaCl, 30 mM EDTA and 0.5% v/v Surfactant P20], 1% v/v DMSO). For kinetic measurements, serial dilutions of compound (0.078 nM up to 25 nM) are injected over immobilized protein. Binding kinetics is measured at 37° C. with a flow rate of 100 μl/min in running buffer. Compound concentrations are injected for 70 s followed by a dissociation time of 1100 s. The resulting sensorgrams are double-referenced against the reference surface as well as against blank injections.
The double-referenced sensorgrams are fit to a simple reversible Langmuir 1:1 reaction mechanism as implemented in the Biacore® T200 evaluation software 2.0 (GE Healthcare). In cases were full compound dissociation has not occurred at the end of the dissociation phase, the Rmax parameter (response at saturation) is fit as local variable. In all other cases, Rmax is fit as global variable.

T1 sequence (P50750 whole entry): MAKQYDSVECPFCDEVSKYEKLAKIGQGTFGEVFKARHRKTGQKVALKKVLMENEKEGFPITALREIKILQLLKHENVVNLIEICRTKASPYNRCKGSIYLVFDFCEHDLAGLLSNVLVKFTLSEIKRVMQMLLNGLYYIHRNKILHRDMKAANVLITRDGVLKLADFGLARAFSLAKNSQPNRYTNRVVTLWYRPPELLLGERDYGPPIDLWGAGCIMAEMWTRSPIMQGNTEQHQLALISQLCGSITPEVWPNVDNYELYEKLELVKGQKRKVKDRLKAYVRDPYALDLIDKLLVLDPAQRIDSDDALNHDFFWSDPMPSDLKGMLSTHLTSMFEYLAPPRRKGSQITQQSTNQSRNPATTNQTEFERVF
T1 sequence (O60563 whole entry partner): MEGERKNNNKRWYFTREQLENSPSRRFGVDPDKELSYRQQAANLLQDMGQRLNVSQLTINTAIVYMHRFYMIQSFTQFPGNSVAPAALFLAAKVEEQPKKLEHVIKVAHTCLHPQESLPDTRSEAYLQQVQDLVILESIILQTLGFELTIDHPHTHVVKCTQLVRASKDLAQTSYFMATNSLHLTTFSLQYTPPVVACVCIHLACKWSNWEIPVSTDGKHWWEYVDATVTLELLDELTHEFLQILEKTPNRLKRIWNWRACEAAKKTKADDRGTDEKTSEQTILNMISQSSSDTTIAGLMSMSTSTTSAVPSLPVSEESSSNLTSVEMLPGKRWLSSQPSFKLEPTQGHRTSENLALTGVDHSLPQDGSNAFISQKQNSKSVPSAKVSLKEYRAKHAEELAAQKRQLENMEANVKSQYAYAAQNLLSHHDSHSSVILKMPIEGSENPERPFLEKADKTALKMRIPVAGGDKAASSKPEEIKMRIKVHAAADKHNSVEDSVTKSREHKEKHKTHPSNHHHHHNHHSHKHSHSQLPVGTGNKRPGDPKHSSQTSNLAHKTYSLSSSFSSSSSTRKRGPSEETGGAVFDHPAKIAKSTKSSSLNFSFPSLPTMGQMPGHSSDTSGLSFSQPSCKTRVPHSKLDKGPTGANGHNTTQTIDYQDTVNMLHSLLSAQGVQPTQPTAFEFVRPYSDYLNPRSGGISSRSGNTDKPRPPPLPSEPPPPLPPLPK

Row | Structure (SMILES) | IC50 [1] | IC50 [2] | residence time [3] | Kd [3] | koff [3]
1 | CC(C)(C)OC(=O)N=S(C)(=O)Cc1cc2cc(c1)OCCCCNc1cc(ccc1F)-c1nc(ncc1F)N2 (racemic) [Example 1, (rac)-tert-butyl [{[3,20-difluoro-13-oxa-5,7,18,25-tetraazatetracyclo[17.3.1.1^2,6.1^8,12]pentacosa-1(23),2(25),3,5,8(24),9,11,19,21-nonaen-10-yl]methyl}(methyl)oxido-λ^6-sulfanylidene]carbamate] | 99 nM | 13 nM | – | – | –
2 | CS(=N)(=O)Cc1cc2cc(c1)OCCCCNc1cc(ccc1F)-c1nc(ncc1F)N2 (racemic) [Example 2, (rac)-3,20-difluoro-10-[(S-methylsulfonimidoyl)methyl]-13-oxa-5,7,18,25-tetraazatetracyclo[17.3.1.1^2,6.1^8,12]pentacosa-1(23),2(25),3,5,8(24),9,11,19,21-nonaene] | 1.2 nM | 1.2 nM | > 208 min | 0.074 nM | < 8e-05 s⁻¹
3 | CS(=N)(=O)Cc1cc2cc(c1)OCCCNc1cc(ccc1F)-c1nc(ncc1F)N2 (racemic) [Example 3, (rac)-3,19-difluoro-10-[(S-methylsulfonimidoyl)methyl]-13-oxa-5,7,17,24-tetraazatetracyclo[16.3.1.1^2,6.1^8,12]tetracosa-1(22),2(24),3,5,8(23),9,11,18,20-nonaene] | 25 nM | 5.9 nM | 13 min | 0.38 nM | 0.0012 s⁻¹
4 | CC1CCCNc2cc(ccc2F)-c2nc(ncc2F)Nc2cc(CS(C)(=O)=O)cc(c2)O1 (racemic) [Example 8, (rac)-3,20-difluoro-14-methyl-10-[(methylsulfonyl)methyl]-13-oxa-5,7,18,25-tetraazatetracyclo[17.3.1.1^2,6.1^8,12]pentacosa-1(23),2(25),3,5,8(24),9,11,19,21-nonaene] | – | 7.7 nM | 33 min | 0.28 nM | 0.0005 s⁻¹
